The results in this text go back to US20050043315A1, “Aminopyrimidine compounds, processes for their preparation and pharmaceutical compositions containing them” (priority 2002, published 2005).

The term Ki denotes the equilibrium dissociation constant of an inhibitor or competing ligand from its target. Low readings indicate higher affinity, high ones lower affinity. As usually defined, the melting point is the temperature of the solid-liquid transition.

The target in one data set is T1, human A1 receptor (Homo sapiens, UniProt P30542).
T1 sequence (P30542 1-326): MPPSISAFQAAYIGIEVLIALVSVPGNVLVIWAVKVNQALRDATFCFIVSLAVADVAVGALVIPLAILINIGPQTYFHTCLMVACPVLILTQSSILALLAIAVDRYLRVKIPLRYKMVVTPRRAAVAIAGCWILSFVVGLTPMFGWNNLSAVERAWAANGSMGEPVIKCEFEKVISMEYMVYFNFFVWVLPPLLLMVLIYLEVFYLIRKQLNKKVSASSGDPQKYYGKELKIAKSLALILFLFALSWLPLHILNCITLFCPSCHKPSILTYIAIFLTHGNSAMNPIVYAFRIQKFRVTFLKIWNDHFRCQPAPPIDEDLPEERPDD
The data set can be described thus: Adenosine antagonistic activity, radioligand binding with [3H]DPCPX. Particulars: [3H]DPCPX 4.5 nM. Here is the method: (§1) The adenosine antagonistic activity [Ki(nM)] of the test compound was examined by radioligand binding techniques using 8-cyclopentyl-1,3-dipropylxanthine, [dipropyl-2,3-^3H(N)] ([^3H]DPCPX, 4.5 nM) for human A1 receptor and [^3H]CGS 21680 (20 nM) for human A2a receptor.

The target of the next data set is human A2a receptor (Homo sapiens, UniProt P29274). The data set can be described thus: Adenosine antagonistic activity, radioligand binding with [3H]CGS 21680. As to conditions: [3H]CGS 21680 20 nM. Here is the method:
as §1

The test system of the next data set is ddY mice. Put plainly: Anticatalepsy activity in mouse (haloperidol-induced catalepsy). Format: in vivo. As to conditions: 3.2 mg/kg orally, ddY mice n=7; haloperidol 0.32 mg/kg i.p. 30 min after compound; measured 30 min after injection. Here is the method:
The test compound (3.2 mg/kg) was administered orally with ddY mice(n=7). Then, haloperidol (0.32 mg/kg) was injected intraperitoneally 30 min. after the administration of the compound. Thirty min. after the injection, the cataleptic responses of mice were measured. The forelimbs of each mouse were placed on a 3 cm high, 3 mm wide horizontal bar, and the duration of cataleptic posture was measured for up to 30 sec.

SMILES strings stand for the structures.

Chain of human A2a receptor (P29274 whole entry): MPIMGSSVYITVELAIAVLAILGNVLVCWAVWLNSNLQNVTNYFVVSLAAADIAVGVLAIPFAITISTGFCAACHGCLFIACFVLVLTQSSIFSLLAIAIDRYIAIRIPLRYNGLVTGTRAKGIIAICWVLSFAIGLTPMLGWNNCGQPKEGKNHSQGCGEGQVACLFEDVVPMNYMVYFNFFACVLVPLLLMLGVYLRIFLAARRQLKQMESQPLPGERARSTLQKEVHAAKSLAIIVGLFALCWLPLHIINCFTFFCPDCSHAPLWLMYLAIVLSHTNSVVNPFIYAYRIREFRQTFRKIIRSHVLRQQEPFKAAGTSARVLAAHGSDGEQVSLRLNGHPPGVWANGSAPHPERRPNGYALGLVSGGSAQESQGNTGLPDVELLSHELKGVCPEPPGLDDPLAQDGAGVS

As to `COCCOc1ccc(-c2nc(N)ncc2-c2ccc(=O)n(C(C)C)n2)cc1` [Example 212, 6-{2-Amino-4-[4-(2-methoxyethoxy)phenyl]-5-pyrimidinyl}-2-isopropyl-3(2H)-pyridazinone], the melting point came out at 147 °C. Also, on human A1 receptor, the inhibitory constant (Ki) is 2.36 nM. In addition, at human A2a receptor, the inhibitory constant (Ki) worked out at 1.7 nM. In addition, in the data set with ddY mice, the “Manifestation rate of catalepsy (number of mouse)” value (from here on “Manifestation rate of catalepsy”) is on record as 0/7.
For `CCn1nc(-c2cnc(N)nc2-c2ccccc2)ccc1=O` [Example 4, 6-(2-Amino-4-phenyl-5-pyrimidinyl)-2-ethyl-3(2H)-pyridazinone], the melting point fell in the range of 255 to 256 °C. On human A1 receptor, this compound came in with a Ki of 3.14 nM. Besides, the inhibition constant (Ki) on human A2a receptor worked out at 4.35 nM. The “Manifestation rate of catalepsy” value in the data set with ddY mice is given as 0/7.
The like results for `CC(C)n1nc(-c2cnc(NCc3ccccn3)nc2-c2ccccc2)ccc1=O` [Example 18, 2-Isopropyl-6-{4-phenyl-2-[(2-pyridinylmethyl)amino]-5-pyrimidinyl}-3(2H)-pyridazinone] were, in that order, 143 to 144.5 °C, 10.8 nM, 7.38 nM and 0/7.
For the compound `CC(=O)Nc1ncc(-c2ccc(=O)n(C(C)C)n2)c(-c2ccccc2)n1` [Example 7, N-[5-(1-Isopropyl-6-oxo-1,6-dihydro-3-pyridazinyl)-4-phenyl-2-pyrimidinyl]acetamide], the melting point was 209 to 210 °C. Besides, at human A1 receptor, the Ki worked out at 6.47 nM. On human A2a receptor, this compound returned a Ki of 2.09 nM. The “Manifestation rate of catalepsy” value with ddY mice is 0/7.
For the compound `CC(C)n1nc(-c2cnc(N)nc2-c2ccco2)ccc1=O` [Example 47, 6-[2-Amino-4-(2-furyl)-5-pyrimidinyl]-2-isopropyl-3(2H)-pyridazinone], the melting point is 215 °C. The compound further had an inhibitory constant (Ki) on human A1 receptor of 7.74 nM. In addition, the inhibitory constant (Ki) at human A2a receptor came out at 1.38 nM. Moreover, the “Manifestation rate of catalepsy” value with ddY mice was 1/7.
The corresponding values for `CC(C)n1nc(-c2c(F)nc(N)nc2-c2ccccc2)ccc1=O` [Example 136, 6-(2-Amino-4-fluoro-6-phenyl-5-pyrimidinyl)-2-isopropyl-3(2H)-pyridazinone] are 231 to 232.5 °C, 1.75 nM, 1.41 nM and 0/7.
In the case of `CCOc1cccc(-c2nc(N)ncc2-c2ccc(=O)n(C(C)C)n2)c1` [Example 190, 6-[2-Amino-4-(3-ethoxyphenyl)-5-pyrimidinyl]-2-isopropyl-3(2H)-pyridazinone], the melting point came to 142 °C.
The compound `CC(C)n1nc(-c2cnc(N)nc2-c2ccccc2C(F)(F)F)ccc1=O` [Example 24, 6-{2-Amino-4-[2-(trifluoromethyl)phenyl]-5-pyrimidinyl}-2-isopropyl-3(2H)-pyridazinone] showed a melting point of 160 to 161 °C.
Take `Nc1ncc(-c2ccc(=O)[nH]n2)c(-c2ccccc2)n1` [Example 1, 6-(2-Amino-4-phenyl-5-pyrimidinyl)-3(2H)-pyridazinone]: the melting point was > 280 °C. Besides, on human A1 receptor, the Ki came out at 11.3 nM. On human A2a receptor, this compound had a Ki of 3.85 nM. In the data set on ddY mice, the “Manifestation rate of catalepsy” value is on record as 4/7.
`CN(C)c1ncc(-c2ccc(=O)[nH]n2)c(-c2ccccc2)n1` [Example 9, 6-[2-(Dimethylamino)-4-phenyl-5-pyrimidinyl]-3(2H)-pyridazinone] came in with a melting point of 245 to 246 °C.
In turn, `CC(C)n1nc(-c2c(NCCN)nc(N)nc2-c2ccccc2)ccc1=O` [Example 116, 6-{2-Amino-4-[(2-aminoethyl)amino]-6-phenyl-5-pyrimidinyl}-2-isopropyl-3(2H)-pyridazinone] gave a melting point of 194 to 197 °C.
Regarding `CC(C)Oc1cccc(-c2nc(N)ncc2-c2ccc(=O)n(C(C)C)n2)c1` [Example 196, 6-[2-Amino-4-(3-isopropoxyphenyl)-5-pyrimidinyl]-2-isopropyl-3(2H)-pyridazinone], the melting point was found to be 143 °C.
As to `CC(C)COc1ccccc1-c1nc(N)ncc1-c1ccc(=O)n(C(C)C)n1` [Example 201, 6-[2-Amino-4-(2-isobutoxyphenyl)-5-pyrimidinyl]-2-isopropyl-3(2H)-pyridazinone], the melting point is 189 °C.
For `CC(C)n1nc(-c2cnc(N)nc2-c2ccccc2F)ccc1=O` [Example 20, 6-[2-Amino-4-(2-fluorophenyl)-5-pyrimidinyl]-2-isopropyl-3(2H)-pyridazinone], the melting point was 239 to 240.5 °C.
